Legend:
[1] = tested on: wild type E. coli (ATCC 25922); experiment: Bacterial cytological profiling at pH 4, 5.5, 7 (Example 8), E. coli; assay type: cell-based; conditions: pH 5.5 and 7
Description: (§1) This bacterial cytological profiling (BCP) investigation uses methods and materials described previously by Nonejuie, P., Burkart, M., Poglianoa, K., Pogiano, J. (2013). Bacterial cytological profiling rapidly identifies the cellular pathways targeted by antibacterial molecules. Proc. Natl. Acad. Sci. U.S.A. 110(40):16169-16174. doi: 10.1073/pnas.1311066110.
(§2) For viable cell counts, cells are grown to OD600≈0.4 and diluted 1:1 into buffered or unbuffered media containing various compound concentrations. Samples are then collected and serially diluted (1:10) on a 96 well plate. Five microliters from each well are spotted on LB plates, incubated at 30° C., and viable cells are counted the next day.
(§3) Samples are collected at 10, 30, 120, and 240 min of exposure for viable cell count and imaging. For imaging, E. coli and S. aureus 200 μL of treated cells per time point are stained with 0.8 μg/mL FM4-64, 1.5 μg/mL DAPI, and 0.4 μM SYTOXGreen (Molecular Probes/Invitrogen). P. aeruginosa samples are stained 0.4 μM SYTOX Green, 28 μg/mL DAN, and 1 μg/mL FM 4-64. Cells are transferred to an agarose pad (20% LB, 1% agarose) for imaging.
(§4) For Nu-3 and Nu-8 stocks (at pH 4, 5.5 and 7), stock concentration is 500 mg/mL. For pH 4, the stocks are prepared by dissolving Nu-3 in 25 mM citrate buffer and Nu-8 in 350 mM citric acid. For pH 5.5, the stocks are prepared by dissolving Nu-3 in 25 mM citric-phosphate and Nu-8 in 25 mM critic. For pH 7, the stocks are prepared by dissolving Nu-3 and Nu-8 in 25 mM Sorensen phosphate buffer. 2×LB (lysogeny broth) solutions are prepared with 50 mM citrate buffer for pH 4, 50 mM citrate-phosphate buffer for pH 5.5, and 50 mM Sorensen phosphate buffer for pH 7.

[2] = tested on: wild type P. aeruginosa (PAO1; K2732); experiment: Bacterial cytological profiling at pH 4, 5.5, 7 (Example 8), P. aeruginosa; assay type: cell-based
Description: as §1, §2, §3, §4

pKa measurement = assay type: physicochemical
E. coli ATCC 25922 = experiment: Bacterial cytological profiling (Example 6), E. coli; assay type: cell-based;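 for effect on cell envelope: tested at 1 0.5 and 0.25 times MIC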
Description: as §1, with “study” for “investigation”
Wild type strains of E. coli ATCC 25922 or P. aeruginosa K2732 are grown in rich media (unbuffered 2× Lysogeny broth [LB]) at 30 C to an OD600˜0.4. These cultures are then split and each sample treated with the appropriate concentration of Nu-8 in unbuffered or buffered LB (final mixture OD600˜0.1). Cells exposed without Nu-8 are buffered to pH 4 with phosphoric acid.
The BCP is performed in LB media buffered to pH 4. The minimum inhibitory concentration (MIC) is measured for Nu-3, Nu-4, Nu-5, and Nu-8 against each bacterial strain. As one of ordinary skill in the art understands, minimum inhibitory concentrations are the lowest concentration of an antimicrobial that will inhibit the visible growth of a microorganism after overnight incubation. […] Cellular viability is assayed at three time points (5 minutes and 4 and 24 h following the onset of treatment).
For imaging E. coli, treated cells are stained with 1 μg/Ml FM4-64, 2 μg/mL DAPI, and 0.5 μM SYTOXGreen (Molecular Probes/Invitrogen). P. aeruginosa samples are stained 0.5 μM SYTOX Green, 28 μg/mL DAPI, and 4.5 μg/mL FM 4-64. Cells are transferred to an agarose pad (20% LB, 1% agarose) for imaging as described in Pogliano, J., Osborne, N., Sharp, M. D., Abanes-De Mello, A., Perez, A., Sun, Y.-L. and Pogliano, K. (1999), A vital stain for studying membrane dynamics in bacteria: a novel mechanism controlling septation during Bacillus subtilis sporulation. Molecular Microbiology, 31: 1149-1159. doi:10.1046/j.1365-2958.1999.01255.x.

For CCCCOP(=O)(O)OC[C@H]1O[C@@H](n2ccc(N)nc2=O)C[C@@H]1OP(=O)(O)OCCCC [Nu-8, sodium ((2R,3S,5R)-5-(4-amino-2-oxopyrimidin-1(2H)-yl)-3-((butoxyoxidophosphor-yl)oxy)tetrahydrofuran-2-yl)methyl butyl phosphate], the “effect on cell permeability, viability and growth” value [1] was “alters E. coli cell permeability and reduces cell viability and growth”, the cell growth ([2]; pH 5.5 and 7, 112.5 mg/mL) was “reduction in cell growth” and the “increase/change in cell permeability” value ([2]; pH 5.5 and 7, 112.5 mg/mL) was under 20%. For the same compound, the cell permeability ([2]; pH 7, 225 mg/mL, 10 min) was about 37%, the pKa (pKa measurement) was 3.2 and the “effect on cell envelope” value (E. coli ATCC 25922; BCP) was “affect the cell envelope”. For the same compound, the cell membrane permeability (E. coli ATCC 25922; buffered pH 4 or unbuffered LB) was “increase cell membrane permeability” and the DNA condensation (E. coli ATCC 25922; higher treatment concentrations, buffered pH 4) was “causes DNA condensation”.

Source: patent publication US12054509B2, “Antimicrobial compounds, compositions, and uses thereof” (Lakewood Amedex, Inc., priority 2017, dated 2024)
